15 molecules from PubChem BioAssay (NCI) can be followed below.

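Five compound concentrations were applied to cells in 96-well plates for 48 hours; endpoints were derived by simple linear interpolation of the resulting dose-response curve. At the TGI there is no net growth.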

Assay in all cases: NCI tumour cell line growth inhibition, 48 h
Test [1] has as its system OVCAR-4 ovarian.
Test [2] has as its system HCT-116 colon.
Test [3] has as its system NCI-H226 lung.
Test [4] deals with U251 CNS.
For test [5], the system named is SNB-75 CNS.
The test system of test [6] is K-562 leukemia.
The subject of test [7] is M14 melanoma.
In test [8] the test system is A549 NSCLC.
The subject of test [9] is NCI-H522 lung.
Test [10] concerns HS 578T breast.

For the molecule `O=C(Nc1nnc(-c2c(Cl)c(Cl)c(Cl)c(Cl)c2-c2nc3cc(C(=O)c4ccccc4)ccc3[nH]2)o1)c1ccc(Cl)cc1`, the TGI in [1], in test [2], in [3], in test [4], in test [5] and in test [6] was > 100 µM each time. Besides, the TGI in test [7] and in test [8] was > 100 µM each time.

For `COc1ccc(-n2c(=O)n(-c3ccccc3)c(=O)n2-c2ccc(OC)cc2)cc1`, the TGI in test [1], in [2], in test [3], in test [4], in test [5] and in test [9] was > 100 µM each time. The TGI in test [6], in [7] and in [8] was > 100 µM in each case.

In the case of `O=c1[nH]c(=O)n(C2CC(O)C(CO)O2)cc1C#Cc1ccc(F)cc1` (stereo unspecified), the TGI in [1], in test [3], in [4], in [5], in [9] and in test [6] was > 100 µM throughout. The TGI in [7] and in test [8] was > 100 µM in each case.

In the case of `CCn1c(=O)c2nc(SC)sc2n(-c2ccccc2)c1=O`, the TGI in test [1], in test [2], in test [3], in test [4], in [5] and in test [9] was > 100 µM in each case. Besides, the TGI in [6], in [7] and in [8] was > 100 µM throughout.

On to `CC(=O)C(=[N+]=[N-])C(=O)N(C)CCC#N`, for which the TGI in test [2] was > 10 µM; in test [3] it was > 10 µM; in test [4] it was > 10 µM; in [5] it was 3.39 µM; in test [6], > 10 µM; in test [7], > 10 µM. The TGI in [8] was > 10 µM.

Consider `COc1ccccc1NCc1cccc2c(=O)c3ccc(Cl)cc3oc12`, for which the TGI in [1], in test [2], in [3], in [4], in [5] and in test [9] was > 100 µM in each case. Moreover, the TGI in [6], in test [7] and in test [8] was > 100 µM throughout.

As for `N#Cc1c(-c2ccc(Cl)cc2)c2c(N=Nc3c(O)ccc4ccccc34)[nH]nc2[nH]c1=O`, the TGI was 3.68 µM in test [1]; 1.62 µM in [2]; 1.93 µM in test [3]; 1.56 µM in test [4]; 0.823 µM in test [9]; 3.96 µM in [10]. The TGI in test [6] was > 20.7 µM; in test [7], 0.563 µM; in test [8], 2.3 µM.

With `OC12c3ccccc3C3CCC4(OCCO4)C3C1c1ccccc12` (stereo unspecified), the TGI in [1], in test [2], in [3], in [4], in test [5] and in test [9] was > 100 µM each time. Besides, the TGI in test [6], in test [7] and in test [8] was > 100 µM each time.

On to `Cc1ccc2oc3c(c(Br)c(Br)n3C)c(=O)c2c1`, for which the TGI was > 100 µM in test [1]; 33.9 µM in test [2]; 32.9 µM in test [3]; 35.8 µM in [4]; > 100 µM in test [9]; 65 µM in test [10]. Also, the TGI in [6] was > 100 µM; in test [7], > 100 µM; in [8], 51.5 µM.

With `COc1ccc2[nH]c3c(C)cc([N+](=O)[O-])c(C)c3c2c1`, the TGI is > 100 µM in test [1]; 58.7 µM in test [2]; > 100 µM in test [3]; 97.8 µM in test [4]; 86.1 µM in [5]; 43 µM in [9]. In addition, the TGI in test [6] is 44.3 µM; in test [7], 53.2 µM; in test [8], 75.3 µM.

With `COc1ccc2c(c1)c(=O)c1c(NCCN(C)C)ccc3nnn2c31`, the TGI in test [1] stood at 8.17 µM; in test [2], 13.4 µM; in test [3], 9.44 µM; in test [4], 16.5 µM; in test [5], 20.7 µM; in test [9], 15.8 µM. Further, the TGI in [6] was found to be 15.5 µM; in test [7], 16.2 µM; in test [8], 12.8 µM.

For `CCC(O)c1ccc(N=Cc2ccccc2O)cc1` (stereo unspecified), the TGI in [1], in [2], in test [3], in [4], in test [5] and in test [9] was > 100 µM throughout. Besides, the TGI in [6], in [7] and in [8] was > 100 µM in each case.

In the case of `CC(CN(C)C)C(=O)c1ccccc1` (stereo unspecified), the TGI in [1] was > 55.5 µM; in test [2] it was > 53 µM; in test [3] it was > 100 µM; in test [4], > 100 µM; in [5], > 100 µM; in [9] it was 4.32 µM. Moreover, the values for the TGI in test [6], in [7] and in test [8] were > 100 µM, > 55 µM and > 100 µM, respectively.

For the molecule `C#CC1(O)CCC2[C@@H]3CCc4cc(Oc5nc(F)nc(-c6c7ccccc7cn6C)n5)ccc4C3CC[C@@]21C` (stereo partly specified), the TGI in test [1], in test [2], in test [3], in test [4], in test [5] and in [9] was > 100 µM in each case. Moreover, the TGI in [6], in test [7] and in test [8] was > 100 µM throughout.

Consider `Cc1cccc(C)c1Nc1nc(C)c(C(=O)CC(=O)C(=O)Nc2c(C(C)C)cccc2C(C)C)s1`, for which the TGI in test [1], in test [2], in test [3], in test [4], in test [9] and in [10] was > 100 µM each time. In addition, the TGI in test [6], in test [7] and in [8] was > 100 µM in each case.
